Reference: publication PMC10219169, “Thiopurines Analogues with Additional Ring: Synthesis, Spectroscopic Properties, and Anticancer Potency” (International Journal of Molecular Sciences, 2023)
Where two headings read alike, the source gives them in different places.

How the values were obtained:
HeLa cells = assay: CellTiter-Glo cell viability assay (24 h), HeLa; format: cell-based, human; conditions: for IC50: CellTiter-Glo; for reduction of HeLa cell viability: c = 80 μM; for selectivity index (SI): SI = IC50 normal cell (NIH/3T3) / IC50 cancerous cell (HeLa)
Description: (§1) The compounds in this work were tested for their in vitro inhibitory effect on the viability of the HeLa (cancerous) cell line using the CellTiter-Glo® 2.0 cell viability assay (24 h). In addition, the mouse fibroblast NIH/3T3 cell line was used to assess the effects of the compounds on healthy normal cells. […] The 6TG was used as a standard in all tests conducted. The graph of percentage cell viability (y axis) against concentrations of the tested compounds (x axis) and concentration-viability curves with IC50 values from dose-response studies are presented in Figure 4 and Figure 5, respectively.
(§2) The cytotoxicity of the synthesized compounds was tested using cell lines of cervical cancer (HeLa) and mouse fibroblasts (NIH/3T3). Both cell lines were cultured in Dulbecco′s Modified Eagle′s medium (31053, Sigma-Aldrich-Gibco, Thermo Fisher Scientific, Waltham, MA, USA) supplemented with 10% fetal bovine serum (Biowest, Nuaillé, France), 1% Glutamax (Thermo Fisher Scientific, Waltham, MA, USA), and 1% Antibiotic-Antimycotic (Biowest) under standard culture conditions (95% humidity, 5% CO2, at 37 °C). For the purpose of cytotoxicity assays, cells (from both cell lines) were seeded at a density of ca. 5000 cells/well on a 96-well microplate (white, flat bottom), in 4 replicates. 6-Me-TEGuo, 6-Me-TEGua, TEGuo, TEGua, and 6-Me-TEG were tested for their potential cytotoxicity using the following concentrations: 160 (except 6-Me-TEG), 80, 40, 20, 10, 5, and 2.5 μM. Additionally, 6-thioguanine (6TG) in concentrations of 10, 7.5, 5, 2.5, 1.25, and 0.625 μM was tested. All assays included non-treated cells and cells treated with 10% DMSO as negative and positive controls, respectively. The cells were incubated for 24 h under standard culture conditions. Cytotoxicity was measured as cell viability with the CellTiter-Glo® Luminescent Cell Viability Assay (Promega, Madison, WI, USA) according to the manufacturer’s protocol. The microplate luminescence was measured using an Infinite® 200 PRO plate reader (Tecan, Männedorf, Switzerland). Then, the average luminescence of non-labeled cells was equated to 100%, and the remaining values were proportionally normalized. The IC50 values were calculated from the fitting curves using Origin 2022.

[1] = n-octanol/phosphate buffer pH 7.4 partition coefficient (lipophilicity determination); format: physicochemical; conditions: 1-octanol/phosphate buffer pH 7.4, read-out: Experimental log Po/w (pH 7.4)
Description: The key parameter in drug design and one of the most important properties for all the pharmacokinetic rules is the octanol/water partition coefficient, log Po/w. It is defined as the partition coefficient ratio of a compound between the hydrophobic and hydrophilic phases and corresponds to lipophilicity, which describes drug interactions with membranes and the possibility of their transport across the membrane into the cell. The values of log Po/w were determined experimentally for all the tested compounds and compared with the values theoretically estimated on the SwissADME [23] webserver.
The partition coefficients of the tested compounds were determined for n-octanol/phosphate buffer pH 7.4 at 25 °C and 37 °C. The initial concentrations of the compounds (1.0 × 10^−5 M and 2.0 × 10^−5 M) were measured spectrophotometrically, according to the Beer–Lambert law. The absorbances were recorded at λmax of the appropriate compound against a suitable phosphate buffer blank. A quantity of 1 mL of the solution of the tested compound in the phosphate buffer at pH 7.4 and 1 mL of n-octanol were placed in 2 mL Eppendorf tubes. The samples were shaken manually (2 min), vortexed (5 min), and incubated for 5 h at 25 °C or 37 °C. Then, the tubes were centrifuged (2 min, 10,000 rpm). Both layers were carefully separated, and the absorbances were measured for the aqueous layers at a suitable λmax against the blank of the phosphate buffer at a suitable pH. The given logPo/w values are the mean of three independent experiments (one experiment: 3 samples for 2 concentrations of each compound).

[2] = pKa determination by spectrophotometric method; format: physicochemical; conditions: for fraction existing in ionic form: at physiological pH (7.32–7.42); for pKa: spectrophotometric method, buffer solutions of different pH
Description: The synthesized compounds, due to their structure, can be hydrogen donors as well as acceptors. Depending on the pH, they can exist in protonated or deprotonated forms. In order to establish which form of the new tricyclic thiopurine derivatives is favored at neutral pH (the conditions under which the in vitro tests will be carried out), their pKa values were determined by spectrophotometric methods (see Table 1 and the Experimental Section). […] This means that at physiological pH (7.32–7.42), about 6% of TEGuo/TEGua exist in ionic form, while 6-Me-TEGuo/6-Me-TEGua only about 4%.
UV-vis absorption spectra were recorded using a Cary 100 spectrophotometer scanning from 800 to 200 nm with 1 nm increments in 1 cm × 1 cm quartz cells. Emission spectra were taken in 1 cm × 1 cm quartz cells on a JASCO FP–8300 spectrofluorometer (excitation and emission slits 5 nm, scan speed 500 nm min^−1) for solutions with absorbance at the excitation wavelength less than 0.1. The fluorescence quantum yields were determined using 10-methylacridinium cation in water (Φ = 1.0) as a standard. The dissociation constants were determined by the spectrophotometric method: in a first step, buffer solutions of different pH were prepared. The pH of solutions was determined by a Mettler Toledo F20 FiveEasy pH meter equipped with a pH electrode LE438 3 in 1 (Mettler Toledo). In the second step, equal volumes of a substance dissolved in water (10 μL) were added to the buffer solution (3 mL). The spectra were recorded with 1 nm resolution over the range from 220 to 550 nm to obtain different spectra around the maximum λ for each compound studied. The purity of all samples was monitored by an HPLC method. HPLC measurements were performed using an Agilent 1200 Rapid Resolution UHPLC system equipped with a reversed-phase column (Eclipse Plus C18, […], 4.6 × 250 mm). A gradient of acetonitrile in water was used as an eluent. The water was doubly distilled and purified using a Milli-Q system (Millipore, Bedford, MA, USA). The fluorescence lifetime measurements were recorded using a Fluorescence Lifetime Spectrometer (FluoTime 300 from PicoQuant) with a time-correlated single-photon counting detection system equipped with a 378 nm laser as its excitation source. All experiments were carried out in a standard quartz cell (1 cm × 1 cm).

NIH/3T3 cells = assay: CellTiter-Glo cell viability assay (24 h), NIH/3T3; format: cell-based; conditions: Mus musculus, NIH3T3, NIH/3T3, 24 h
Description: as §1, §2

[3] = pKa* of singlet excited state from pH-dependent fluorescence emission; format: physicochemical; conditions: determined from emission from the singlet excited state
Description: At pH 4.0, as was the case for the absorbance at 352 nm, the intensity and shape of the fluorescence signal were similar to those observed in water solution for all the compounds tested. However, in the case of basic pH, a two-fold increase in the emission intensity and a blueshift of the emission maximum were observed.
UV-vis absorption spectra were recorded using a Cary 100 spectrophotometer scanning from 800 to 200 nm with 1 nm increments in 1 cm × 1 cm quartz cells. Emission spectra were taken in 1 cm × 1 cm quartz cells on a JASCO FP–8300 spectrofluorometer (excitation and emission slits 5 nm, scan speed 500 nm min^−1) for solutions with absorbance at the excitation wavelength less than 0.1. The fluorescence quantum yields were determined using 10-methylacridinium cation in water (Φ = 1.0) as a standard. The dissociation constants were determined by the spectrophotometric method: in a first step, buffer solutions of different pH were prepared. The pH of solutions was determined by a Mettler Toledo F20 FiveEasy pH meter equipped with a pH electrode LE438 3 in 1 (Mettler Toledo). […] The spectra were recorded with 1 nm resolution over the range from 220 to 550 nm to obtain different spectra around the maximum λ for each compound studied. The purity of all samples was monitored by an HPLC method. […]

[4] = n-octanol/phosphate buffer pH 7.4, pH 7.4, 25 °C
[5] = n-octanol/phosphate buffer pH 7.4, pH 7.4, 37 °C

SMILES | logP at 5 h [1, 4] | logP at 5 h [1, 5] | IC50 (HeLa cells; HeLa, 24 h) | IC50 (HeLa cells; Homo sapiens, HeLa, 24 h) | fraction existing in ionic form [2] | pKa [2] | pKa* (singlet excited state) [3] | effect on HeLa cell viability (HeLa cells; HeLa, concentration range 2.5 μM to 80 μM, 24 h) | reduction of HeLa cell viability (HeLa cells; HeLa, 24 h) | IC50 (NIH/3T3 cells) | selectivity index (SI) (HeLa cells)
Cc1cn2c(=S)c3nc[nH]c3nc2[nH]1 [6-Me-TEGua, 6-methyl-9-thio-1,N^2-ethenoguanine] | 0.75 | 0.7 | < 100 µM | 78.2 µM | about 4% | 8.8 |  |  | up to 57% | 51.6 µM | 
Nc1nc2nc[nH]c2c(=S)[nH]1 [6TG, 6-thioguanine, reference compound] |  |  |  |  |  |  |  |  |  |  | > 1
S=c1c2nc[nH]c2nc2[nH]ccn12 [TEGua, 9-thio-1,N^2-ethenoguanine] | 0.58 | 0.52 |  | 137 µM | about 6% | 8.6 |  |  |  | 97.9 µM | 
OC[C@H]1O[C@@H](n2cnc3c(=S)n4cc[nH]c4nc32)[C@H](O)[C@@H]1O [TEGuo, 9-thio-1,N^2-ethenoguanosine] | -0.89 | -0.96 | < 100 µM | 80.2 µM | about 6% | 8.6 | 8.7 |  |  | 83.6 µM | > 1

Now from value to compound, other results behind:

logP at 5 h [1, 4] | logP at 5 h [1, 5] | IC50 (HeLa cells; HeLa, 24 h) | IC50 (HeLa cells; Homo sapiens, HeLa, 24 h) | fraction existing in ionic form [2] | pKa [2] | pKa* (singlet excited state) [3] | SMILES | effect on HeLa cell viability (HeLa cells; HeLa, concentration range 2.5 μM to 80 μM, 24 h) | reduction of HeLa cell viability (HeLa cells; HeLa, 24 h) | IC50 (NIH/3T3 cells) | selectivity index (SI) (HeLa cells)
0.8 | 0.75 |  |  |  |  |  | CC(=O)OC[C@H]1O[C@@H](n2cnc3c(=S)n4cc(C)[nH]c4nc32)[C@H](OC(C)=O)[C@@H]1OC(C)=O [6-Me-TEG, 2′,3′,5′-tri-O-acetyl-6-methyl-9-thio-1,N^2-ethenoguanosine] | no effect on HeLa cell viability was observed |  |  | 
-0.61 | -0.67 | < 100 µM | 55.8 µM | about 4% | 8.8 | 8.9 | Cc1cn2c(=S)c3ncn([C@@H]4O[C@H](CO)[C@@H](O)[C@H]4O)c3nc2[nH]1 [6-Me-TEGuo, 6-methyl-9-thio-1,N^2-ethenoguanosine] |  | up to 42% | 63.8 µM | > 1
